Experimental data published in patent US6218438A, “Copolymer compositions for treating viral infections” (Supratek Pharma, Inc., priority 1999, dated 2001).

Key:
[1] = Solubility of Fe(III)BBNH in water and organic solvents; format: physicochemical; details: room temperature, 180 min
Procedure: One mg of Fe(III)BBNH was dissolved in 1 ml of dimethyl sulfoxide (DMSO). Aliquots of the solution were further diluted with DMSO to achieve the following final concentrations: […]. Each concentration point of was prepared in triplicates. The aliquots […] of the samples were transferred in 96-well plate. The optical densities (OD) at […] of all the samples were measured by using Microplate Reader.
The samples of Fe(III)BBNH (1 mg each) were placed in 1 ml of the following solvents:
The samples were intensively agitated during three hours at room temperature using a rotator. After that the samples were centrifuged at 10,000 g for 10 minutes. The supernatants (500 μl each) were separated and then were dried by using a speed-vac centrifuge. Each sample was then dissolved in 500 μl DMSO and aliquots (50 μl each) were transferred to 96-well plate. The optical densities were determined at λ400 nm for using microplate reader. Concentrations of the test compound in the samples were then determined by using the above shown calibration data. Each concentration of the test compound was measured in triplicates.

[2] = test system: HIV-1 infection of MT2 cells; experiment: Inhibition of HIV-1 infection of uninfected MT2 cells; format: cell-based; details: compound in DMSO, 30 min before HIV
Procedure: BBNH and Fe(III)-BBNH complex at various concentrations were examined for the ability to inhibit HIV-1 infection of uninfected MT2 cells. Aliquots of a solution of the compounds in dimethyl sulfoxide were added to uninfected MT2 cells (2×10^5 cells/ml) in RPMI medium containing 10% fetal bovine serum to provide defined final concentrations of test compound. The cells and test compounds were incubated for 30 minutes at 37° C., then inoculated with a suspension of HIV virions. The cells, test compounds and HIV were incubated for 18 h at 37° C., then the cells were collected by centrifugation, washed, and resuspended in RPMI medium containing 10% fetal bovine serum and containing the same concentration of test compound as initially employed. The cells were then cultured at 37° C. (with culture medium changes as required). HIV infection was assessed by microscopic examination of HIV-induced cytopathicity (syncytium) and/or by analysis of HIV p24 antigen levels in the culture supernatants.

HIV-1 RT = HIV-1 RT (Human immunodeficiency virus type 1 BH10, UniProt P03366); experiment: In vitro inhibition of HIV-1 RT enzymatic activities (RDDP, RNase H, DDDP); format: biochemical
[3] = Solubility of Fe(III)BBNH in organic solutions with various salts and pH; format: physicochemical
Procedure: The samples of Fe(III)BBNH (1 mg of each) were placed in 1 ml of following range of solvents:
The samples were intensively agitated during three hours at room temperature using a rotator. After that the samples were centrifuged at 10,000 g for 10 min. The supernatants (500 μl each) were separated and then dried by using a speed-vac centrifuge. Each sample was dissolved in 500 μl DMSO and the aliquots (50 μl each) were transferred to 96-well plate. The optical densities were determined at λ400 nm using a microplate reader. Fe(III)BBNH concentrations in the samples were then determined by using the calibration shown in Example 4A. Each concentration of Fe(III)BBNH was analyzed in triplicates.

[4] = biological target: T1, HIV-1 reverse transcriptase (p51/p66 RT), RDDP activity (Human immunodeficiency virus type 1 group M subtype B, UniProt P03366); experiment: Inhibition of RNA dependent DNA polymerase activity of RT (RT RDDP); format: biochemical
T1 construct: 10 ng of p51/p66 heterodimeric RT per assay were used
Procedure: BBNH and Fe(III)-BBNH complex at various concentrations were examined for the ability to inhibit RNA dependent and DNA dependent DNA polymerase activities as well as RNAse H activity of HIV-1 reverse transcriptase (RT RDDP, RT DDDP, and RT RNAse H, respectively). To analyze RT RDDP and RT DDDP the following reaction mixture (100 μl total volume) was used: 50 mM Tris-HCl (pH 7.8), 60 mM KCl, 10 mM MgCl2, 10 ng of p51/p66 RT, 0.1-0.5 units of template/primer, and 0.5-25 μM [^3 H]dNTP. Aliquots of the test compounds dissolved in DMSO were added to the reaction mixtures, incubated for 10-20 min. at 37° C. and than quenched with 500 μl of cold 20 mM sodium pyrophosphate in 10% dichloroacetic acid. After 10 min. on ice, the samples were filtered on Whatman 934-AH glass fiber filters and washed with 10% dichloroacetic acid and ethanol, and the radioactivity was determined by liquid scintillation analysis. To analyze RT RNAse H the following reaction mixture (50 μl total volume) was used: 5OmM Tris-HCl (pH 8.0), 60 mM KCl, 8 mM MgCl2, and variable amounts of ([^3 H]rG)-poly(dC). Generally, 10 ng of p51/p66 heterodimeric RT per assay were used. Aliquots of the test compounds dissolved in DMSO were added to the reaction mixtures, incubated for 20 min. at 37° C. and than quenched by placing the tubes on ice followed by the addition of 100 μl of cold 7% perchloric acid. After 10 min. on ice, the samples were centrifuged at 12,000 g for 15 min. 100 μl of the supernatants were carefully removed, and the radioactivity was determined by liquid scintillation analysis.

CC(C)(C)c1ccc(C(=O)NN=Cc2c(O)ccc3ccccc23)cc1.C[O-].[Cl-].[Cl-].[Fe+3] [Fe(III)-BBNH]
Solubility of Fe(III)BBNH dissolved in the sample ([1]; Acetonitrile 100%): 163.6 µg/mL
Solubility of Fe(III)BBNH dissolved in the sample ([1]; Acetonitrile: 10% H2O): 491.4 µg/mL
Solubility of Fe(III)BBNH dissolved in the sample ([1]; Acetonitrile: 20% H2O): 293.9 µg/mL
Solubility of Fe(III)BBNH dissolved in the sample ([1]; DMFA 100%): 1000.2 µg/mL
Solubility of Fe(III)BBNH dissolved in the sample ([1]; DMSO 100%): 1001.4 µg/mL
Solubility of Fe(III)BBNH dissolved in the sample ([1]; Methanol 100%): 505.6 µg/mL
Solubility of Fe(III)BBNH dissolved in the sample ([1]; Methanol: 10% H2O): 206.7 µg/mL
Solubility of Fe(III)BBNH dissolved in the sample ([1]; Water 100%): < 0.001 µg/mL
IC50 [2]: > 50000 nM
inhibitory activity against RT in vitro compared to the parent uncomplexed BBNH (HIV-1 RT): improved inhibitory activity compared to the parent uncomplexed BBNH
Concentration of Fe306 dissolved in the sample ([3]; Acetonitrile:10% Ammonium Acetate (0.01 M) pH 3.0): 125.7 µg/mL
Concentration of Fe306 dissolved in the sample ([3]; Acetonitrile:10% Ammonium Acetate (0.01 M) pH 5.0, 180 min): 223.9 µg/mL
Concentration of Fe306 dissolved in the sample ([3]; Acetonitrile:10% Ammonium Acetate (0.01 M) pH 7.0, 180 min): 304.7 µg/mL
Concentration of Fe306 dissolved in the sample ([3]; Acetonitrile:10% Ammonium Formate (0.01 M) pH 3.0): 172.9 µg/mL
Concentration of Fe306 dissolved in the sample ([3]; Acetonitrile:10% Ammonium Formate (0.01 M) pH 5.0, 180 min): 233.6 µg/mL
Concentration of Fe306 dissolved in the sample ([3]; Acetonitrile:10% Ammonium Formate (0.01 M) pH 6.2, 180 min): 200.1 µg/mL
Concentration of Fe306 dissolved in the sample ([3]; Methanol:10% 0.01 M phosphate buffer pH 3.0): 14.4 µg/mL
Concentration of Fe306 dissolved in the sample ([3]; Methanol:10% 0.01 M phosphate buffer pH 5.0, 180 min): 14.9 µg/mL
Concentration of Fe306 dissolved in the sample ([3]; Methanol:10% Ammonium Acetate (0.01 M) pH 3.0): 26.2 µg/mL
Concentration of Fe306 dissolved in the sample ([3]; Methanol:10% Ammonium Acetate (0.01 M) pH 5.0, 180 min): 76.6 µg/mL
Concentration of Fe306 dissolved in the sample ([3]; Methanol:10% Ammonium Acetate (0.01 M) pH 7.0, 180 min): 94.4 µg/mL
Concentration of Fe306 dissolved in the sample ([3]; Methanol:10% Ammonium Formate (0.01 M) pH 3.0): 50.9 µg/mL
Concentration of Fe306 dissolved in the sample ([3]; Methanol:10% Ammonium Formate (0.01 M) pH 5.0, 180 min): 43.4 µg/mL
Concentration of Fe306 dissolved in the sample ([3]; Methanol:10% Ammonium Formate (0.01 M) pH 6.2, 180 min): 31.2 µg/mL
IC50 [4]: 400 ± 80 nM
Ratio BBNH/Fe(III)-BBNH (IC50), RT RDDP [4]: 4.8
